Results published in patent publication US20210000838A1, “COMBINATION THERAPY” (MEI Pharma, Inc., priority 2018, published 2021).

Key:
Type in all cases: cell-based
DOHH-2 cells = assay: ATPLite growth inhibition assay, DOHH-2 cells; settings: single agent, FIG. 10
Text: (§1) Cells were thawed from a liquid nitrogen preserved state. […] Assay plates were accepted if they pass the following quality control standards: relative luciferase values were consistent throughout the entire experiment, Z-factor scores were greater than 0.6, untreated/vehicle controls behaved consistently on the plate. […]

SU-DHL-10 cells = assay: ATPLite growth inhibition assay, SU-DHL-10 cells; settings: single agent, FIG. 10
Text: as §1

[1] = system: panel of 8 DLBCL cell lines; assay: ATPLite growth inhibition assay across panel of 8 DLBCL cell lines; settings: single agent, FIG. 9
OCI-Ly19 cells = assay: ATPLite growth inhibition assay, OCI-Ly19 cells; settings: single agent, FIG. 10
Text: as §1

OCI-Ly3 cells = assay: ATPLite growth inhibition assay, OCI-Ly3 cells; settings: single agent, FIG. 10
Text: as §1

Pfeiffer cells = assay: ATPLite growth inhibition assay, Pfeiffer cells; settings: single agent, FIG. 10
Text: as §1

NU-DHL-1 cells = assay: ATPLite growth inhibition assay, NU-DHL-1 cells; settings: single agent, FIG. 10
Text: as §1

## CN1CCC(c2ccccc2CC(C)(C)Nc2nc(N3CCOCC3)nc(-n3c(C(F)F)nc4ccccc43)n2)CC1 [Compound I, 4-(2-(difluoromethyl)-1H-benzo[d]imidazol-1-yl)-N-(2-methyl-1-(2-(1-methylpiperidin-4-yl)phenyl)propan-2-yl)-6-morpholino-1,3,5-triazin-2-amine]
DOHH-2 cells
  growth inhibition effect type: cytotoxic effects
SU-DHL-10 cells
  growth inhibition effect type: sub-cytostatic effects
[1]; all cell lines
  growth inhibition levels: > 50%
[1]; median across cell line panel, 72 hours
  GI50: 1730 nM
OCI-Ly19 cells
  growth inhibition effect type: cytotoxic effects
OCI-Ly3 cells
  growth inhibition effect type: cytotoxic effects
Pfeiffer cells
  growth inhibition effect type: sub-cytostatic effects
NU-DHL-1 cells
  growth inhibition effect type: sub-cytostatic effects
